Data reported in ChEMBL document CHEMBL1201862, “PubChem BioAssay data set” (2004).
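Cultured in 96-well plates, cells were exposed to test compound for 48 hours across five concentrations. GI50: concentration for 50% inhibition of growth.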 Calls of active or inactive are those of the source. No stated cut-off is given here; in the data, active = GI50 up to about 1.1 µM and inactive = higher.

Legend:
Test in all cases: NCI anticancer screen, dose series, 48 h
XF498 = system: XF498
HOP-92 = system: HOP-92
CAKI-1 = system: CAKI-1
EKVX = system: EKVX
HT-29 = system: HT-29
SF-295 = system: SF-295
CCRF-CEM = system: CCRF-CEM
SK-MEL-28 = system: SK-MEL-28
786-0 = system: 786-0
IGROV-1 = system: IGROV-1
UACC-257 = system: UACC-257
OVCAR-3 = system: OVCAR-3
M14 = system: M14
LOX IMVI = system: LOX IMVI
SR = system: SR
SW-620 = system: SW-620
HCT-15 = system: HCT-15
OVCAR-8 = system: OVCAR-8
K562 = system: K562
MOLT-4 = system: MOLT-4
A549 = system: A549
Malme-3M = system: Malme-3M
SK-MEL-2 = system: SK-MEL-2
NCI-H226 = system: NCI-H226
HOP-18 = system: HOP-18
NCI-H23 = system: NCI-H23
DMS-273 = system: DMS-273
HCT-116 = system: HCT-116
U-251 = system: U-251
UACC-62 = system: UACC-62
KM-20L2 = system: KM-20L2
HOP-62 = system: HOP-62
SF-268 = system: SF-268
COLO 205 = system: COLO 205
NCI-H460 = system: NCI-H460
NCI-H522 = system: NCI-H522
KM12 = system: KM12
SNB-75 = system: SNB-75
TK-10 = system: TK-10
OVCAR-4 = system: OVCAR-4
SNB-19 = system: SNB-19
HL-60 = system: HL-60
UO-31 = system: UO-31
DLD-1 = system: DLD-1
RXF 393 = system: RXF 393
M19-MEL = system: M19-MEL
SNB-78 = system: SNB-78
SK-OV-3 = system: SK-OV-3
SN12C = system: SN12C
DMS-114 = system: DMS-114
SK-MEL-5 = system: SK-MEL-5
OVCAR-5 = system: OVCAR-5
RPMI-8226 = system: RPMI-8226
LXFL 529 = system: LXFL 529
SF-539 = system: SF-539
HCC 2998 = system: HCC 2998
ACHN = system: ACHN
A498 = system: A498

In the case of `CCOC(=O)C(=O)Nc1ccc(Cl)cc1C`, the GI50 (XF498) is reported as > 100 µM (inactive), the GI50 (HOP-92) is reported as > 100 µM (inactive) and the GI50 (CAKI-1) is reported as > 100 µM (inactive). For the same compound, the GI50 (EKVX) was > 100 µM (inactive), the GI50 (HT-29) was > 100 µM (inactive) and the GI50 (SF-295) was > 100 µM (inactive). For the same compound, the GI50 (CCRF-CEM) was > 100 µM (inactive), the GI50 (SK-MEL-28) was > 100 µM (inactive) and the GI50 (786-0) was > 100 µM (inactive). The GI50 (IGROV-1) was > 100 µM (inactive), the GI50 (UACC-257) was > 100 µM (inactive) and the GI50 (OVCAR-3) was > 100 µM (inactive). For the same compound, the GI50 (M14) was > 100 µM (inactive), the GI50 (LOX IMVI) was > 100 µM (inactive) and the GI50 (SR) was > 100 µM (inactive). The GI50 (SW-620) was > 100 µM (inactive), the GI50 (HCT-15) was over 100 µM and the GI50 (OVCAR-8) was > 100 µM (inactive). The GI50 (K562) was > 100 µM (inactive), the GI50 (MOLT-4) was > 100 µM (inactive) and the GI50 (A549) was > 100 µM (inactive). For the same compound, the GI50 (Malme-3M) was > 100 µM (inactive), the GI50 (SK-MEL-2) was > 100 µM (inactive) and the GI50 (NCI-H226) was > 100 µM (inactive). The GI50 (HOP-18) was > 100 µM (inactive), the GI50 (NCI-H23) was > 100 µM (inactive) and the GI50 (DMS-273) was > 100 µM (inactive). The GI50 (HCT-116) was > 100 µM (inactive), the GI50 (U-251) was > 100 µM (inactive) and the GI50 (UACC-62) was > 100 µM (inactive). The GI50 (KM-20L2) was > 100 µM (inactive), the GI50 (HOP-62) was > 100 µM (inactive) and the GI50 (SF-268) was > 100 µM (inactive). The GI50 (COLO 205) was > 100 µM (inactive), the GI50 (NCI-H460) was > 100 µM (inactive) and the GI50 (NCI-H522) was > 100 µM (inactive). For the same compound, the GI50 (KM12) was > 100 µM (inactive), the GI50 (SNB-75) was > 100 µM (inactive) and the GI50 (TK-10) was > 100 µM (inactive). The GI50 (OVCAR-4) was > 100 µM (inactive), the GI50 (SNB-19) was > 100 µM (inactive) and the GI50 (HL-60) was > 100 µM (inactive). For the same compound, the GI50 (UO-31) was > 100 µM (inactive), the GI50 (DLD-1) was > 100 µM (inactive) and the GI50 (RXF 393) was > 100 µM (inactive). The GI50 (M19-MEL) was > 100 µM (inactive), the GI50 (SNB-78) was > 100 µM (inactive) and the GI50 (SK-OV-3) was > 100 µM (inactive). For the same compound, the GI50 (SN12C) was > 100 µM (inactive), the GI50 (DMS-114) was > 100 µM (inactive) and the GI50 (SK-MEL-5) was > 100 µM (inactive). The GI50 (OVCAR-5) was > 100 µM (inactive), the GI50 (RPMI-8226) was > 100 µM (inactive) and the GI50 (LXFL 529) was > 100 µM (inactive). The GI50 (SF-539) was > 100 µM (inactive), the GI50 (HCC 2998) was > 100 µM (inactive) and the GI50 (ACHN) was > 100 µM (inactive).
In the case of `COC(=O)c1nc(NN)cc(O)c1CCCCCc1c(O)nc(NN)nc1C(=O)OC`, the GI50 (XF498) is reported as > 100 µM (inactive), the GI50 (HOP-92) is reported as > 100 µM (inactive) and the GI50 (CAKI-1) is reported as > 100 µM (inactive). The GI50 (EKVX) was > 100 µM (inactive), the GI50 (A498) was > 100 µM (inactive) and the GI50 (HT-29) was > 100 µM (inactive). For the same compound, the GI50 (SF-295) was > 100 µM (inactive), the GI50 (CCRF-CEM) was > 100 µM (inactive) and the GI50 (SK-MEL-28) was > 100 µM (inactive). The GI50 (786-0) was > 100 µM (inactive), the GI50 (IGROV-1) was > 100 µM (inactive) and the GI50 (UACC-257) was > 100 µM (inactive). The GI50 (OVCAR-3) was > 100 µM (inactive), the GI50 (M14) was > 100 µM (inactive) and the GI50 (LOX IMVI) was > 100 µM (inactive). For the same compound, the GI50 (SW-620) was > 59.3 µM (inactive), the GI50 (HCT-15) was over 100 µM and the GI50 (OVCAR-8) was > 100 µM (inactive). For the same compound, the GI50 (K562) was > 100 µM (inactive), the GI50 (MOLT-4) was > 100 µM (inactive) and the GI50 (A549) was > 100 µM (inactive). For the same compound, the GI50 (Malme-3M) was > 100 µM (inactive), the GI50 (SK-MEL-2) was > 100 µM (inactive) and the GI50 (NCI-H226) was > 100 µM (inactive). For the same compound, the GI50 (HOP-18) was > 100 µM (inactive), the GI50 (NCI-H23) was > 100 µM (inactive) and the GI50 (DMS-273) was > 100 µM (inactive). The GI50 (HCT-116) was > 100 µM (inactive), the GI50 (U-251) was > 100 µM (inactive) and the GI50 (UACC-62) was > 100 µM (inactive). The GI50 (KM-20L2) was > 100 µM (inactive), the GI50 (HOP-62) was > 100 µM (inactive) and the GI50 (SF-268) was > 100 µM (inactive). The GI50 (COLO 205) was > 77.8 µM (inactive), the GI50 (NCI-H460) was > 100 µM (inactive) and the GI50 (NCI-H522) was > 100 µM (inactive). For the same compound, the GI50 (KM12) was > 100 µM (inactive), the GI50 (SNB-75) was > 100 µM (inactive) and the GI50 (TK-10) was > 100 µM (inactive). The GI50 (OVCAR-4) was > 100 µM (inactive), the GI50 (SNB-19) was > 100 µM (inactive) and the GI50 (HL-60) was > 100 µM (inactive). The GI50 (UO-31) was > 100 µM (inactive), the GI50 (DLD-1) was > 100 µM (inactive) and the GI50 (RXF 393) was > 100 µM (inactive). For the same compound, the GI50 (M19-MEL) was > 100 µM (inactive), the GI50 (SNB-78) was > 100 µM (inactive) and the GI50 (SK-OV-3) was > 100 µM (inactive). For the same compound, the GI50 (SN12C) was > 100 µM (inactive), the GI50 (DMS-114) was > 95.1 µM (inactive) and the GI50 (SK-MEL-5) was > 100 µM (inactive). The GI50 (OVCAR-5) was > 100 µM (inactive), the GI50 (RPMI-8226) was 72.4 µM (inactive) and the GI50 (LXFL 529) was > 100 µM (inactive). For the same compound, the GI50 (SF-539) was > 100 µM (inactive), the GI50 (HCC 2998) was > 100 µM (inactive) and the GI50 (ACHN) was > 100 µM (inactive).
